# Assays:
# [1] = target: T1, human jejunal NK2 receptor (Homo sapiens, UniProt P21452); experiment: Antagonism of iodinated neurokinin A binding to NK2 receptor, HSKR-1 cells (mouse 3T3 fibroblasts expressing the human jejunal NK2 receptor); conditions: NK-2 IC50, HSKR-1 cells, 125I-neurokinin A, mean of several experiments
# T1 construct: expressed in transfected cells; host or cells: HSKR-1 cells (mouse 3T3 fibroblasts)
# T1 sequence (P21452 1-398): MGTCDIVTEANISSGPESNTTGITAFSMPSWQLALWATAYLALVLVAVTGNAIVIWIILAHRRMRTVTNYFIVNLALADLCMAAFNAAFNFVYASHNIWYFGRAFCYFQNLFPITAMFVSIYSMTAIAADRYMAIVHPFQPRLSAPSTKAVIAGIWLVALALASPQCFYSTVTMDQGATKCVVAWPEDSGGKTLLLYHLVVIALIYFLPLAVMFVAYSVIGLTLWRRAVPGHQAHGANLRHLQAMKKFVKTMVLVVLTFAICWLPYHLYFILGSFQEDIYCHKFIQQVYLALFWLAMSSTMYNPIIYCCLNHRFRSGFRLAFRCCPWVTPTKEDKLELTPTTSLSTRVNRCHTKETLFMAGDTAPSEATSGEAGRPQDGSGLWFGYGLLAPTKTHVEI
# Description: (§1) ANTAGONISM OF IODINATED TACHYKININ BINDING TO NK1 AND NK2
# (§2) RECEPTORS BY PUTATIVE ANTAGONISTS
# (§3) The NK1 receptor affinity of proposed tachykinin antagonists was evaluated in guinea pig lungs (Keystone Biologicals, Cleveland, OH), affinity for the NK2 receptor evaluated in HSKR-1 cells (which are mouse 3T3 fibroblasts expressing the human jejunal NK2 receptor) and NK-3 receptor affinity was evaluated in freshly collected guinea pig cerebral cortex. Tissues or cells were homogenized with a Polytron in 15 volumes of 50 mM Tris-HCl buffer (pH 7.4, 4° C.) and centrifuged. The pellet was resuspended in Tris-HCl buffer and was centrifuged; the pellet was washed twice by resuspension. The final pellet was resuspended at a concentration of 40 mg/ml for tissues (guinea pig lung and cerebral cortex) and 20 mg/ml for cells in incubation buffer and remained at room temperature for at least 15 min prior to use. Receptor binding was initiated by addition of 250 ul membrane preparation in duplicate to 0.1 nM of the following radioligands: ^125 I-Bolton Hunter Lys-3 labeled substance P; ^125 iodohistidyl-1-neurokinin A; and ^125 I-Bolton Hunter labeled Lys-4 eledoisin in a final volume of 500 ul of buffer containing 50 mM Tris-HCl (pH 7.4 at room temperature), 0.1% bovine serum albumin, 2 mM MnCl2, 40 ug/ml bacitracin, 4 μg/ml leupeptin and chymostatin, 1 μM thiorphan and various doses of the putative tachykinin antagonists. Incubations were performed at room temperature for 90 min (NK1 receptor assays) or 2 hr (NK2 and NK3 receptor assays); binding was terminated by addition of 50 mM Tris-HCl buffer (pH 7.4, 4° C.) and filtration under vacuum through GF/B filters presoaked with 0.1% polyethyleneimine (NK1 receptor assays) or 0.5% bovine serum albumin (NK2 and NK3 receptor assays). Filter bound radioactivity was quantitated in a gamma counter. Nonspecific binding was defined as binding in the presence of 1 μM substance P, neurokinin A, or eledoisin. Specific binding was calculated by subtracting nonspecific binding from total binding. Competition of iodinated SP, NKA, or eledoisin binding by test compounds or standards was expressed as a percentage of this maximum competition. IC50 values (concentration required to inhibit 50% of receptor binding) were generated for each of the test compounds by nonlinear regression using an iterative curve fitting program (GraphPAD Inplot, San Diego, Calif.).
# [2] = target: T2, NK-3 receptor (Cavia porcellus, UniProt P30098); experiment: Antagonism of iodinated eledoisin binding to NK3 receptor, guinea pig cerebral cortex; conditions: NK-3 IC50, guinea pig cerebral cortex, 125I-eledoisin, mean of several experiments
# T2 construct: evaluated in freshly collected guinea pig cerebral cortex; from tissue; host or cells: guinea pig cerebral cortex
# T2 sequence (P30098 1-440): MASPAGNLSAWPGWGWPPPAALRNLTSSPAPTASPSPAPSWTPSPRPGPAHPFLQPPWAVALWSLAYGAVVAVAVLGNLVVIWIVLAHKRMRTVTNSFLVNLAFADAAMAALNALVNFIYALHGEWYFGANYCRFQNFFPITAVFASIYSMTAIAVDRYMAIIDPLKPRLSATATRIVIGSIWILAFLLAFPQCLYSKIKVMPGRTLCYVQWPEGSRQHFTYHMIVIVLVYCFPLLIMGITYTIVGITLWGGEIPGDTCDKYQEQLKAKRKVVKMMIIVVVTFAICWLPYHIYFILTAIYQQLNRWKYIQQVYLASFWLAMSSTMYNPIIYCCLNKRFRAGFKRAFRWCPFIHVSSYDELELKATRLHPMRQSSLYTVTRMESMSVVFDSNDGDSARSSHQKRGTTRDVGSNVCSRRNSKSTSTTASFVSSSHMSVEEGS
# Description: as §1, §2
# as §3, with “Nonspecific binding was defined as binding in the presence of 1 μM substance P, neurokinin A, or eledoisin.” left out, “IC50 values (concentration required to inhibit 50% of receptor binding) were generated for each of the test compounds by nonlinear regression using an iterative curve fitting program (GraphPAD Inplot, San Diego, Calif.).” left out
# [3] = target: T3, NK1 receptor (Cavia porcellus, UniProt P30547); experiment: Antagonism of iodinated substance P binding to NK1 receptor, guinea pig lung; conditions: NK-1 IC50, guinea pig lung, 125I-substance P, mean of several experiments
# T3 construct: evaluated in guinea pig lungs; tissue Keystone Biologicals, Cleveland, OH; host or cells: guinea pig lung
# T3 sequence (P30547 whole entry): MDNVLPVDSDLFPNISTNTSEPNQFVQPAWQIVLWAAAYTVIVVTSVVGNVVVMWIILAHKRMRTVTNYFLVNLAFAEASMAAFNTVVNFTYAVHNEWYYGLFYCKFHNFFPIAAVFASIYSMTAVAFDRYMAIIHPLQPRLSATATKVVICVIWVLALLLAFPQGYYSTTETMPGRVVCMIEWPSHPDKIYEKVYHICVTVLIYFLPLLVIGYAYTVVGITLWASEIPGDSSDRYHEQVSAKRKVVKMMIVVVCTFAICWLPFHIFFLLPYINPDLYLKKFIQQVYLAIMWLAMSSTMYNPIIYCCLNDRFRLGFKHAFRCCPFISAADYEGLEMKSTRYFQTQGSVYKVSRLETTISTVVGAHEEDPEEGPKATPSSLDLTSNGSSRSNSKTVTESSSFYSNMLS
# Description: as §1, §2, §3
smiles,measurement,setting,value
"COc1cc(C(=O)N2CCC(CCN3CCC(C(N)=O)(c4ccccc4)CC3)(c3ccc(Cl)c(Cl)c3)C2)cc(OC)c1OC (single isomer, unassigned; (-)) [Example 21, (-)-1-[2-[3-(3,4-dichlorophenyl)-1-(3,4,5-trimethoxy-benzoyl)-pyrrolidin-3-yl]-ethyl]-4-phenyl-piperidine-4-carboxylic acid amide]",IC50,[1],760 nM
same,IC50,[2],2300 nM
same,IC50,[3],183 nM
